Converted amounts (≈) assume the structure as drawn.
Conditions: buffer; pH 7.4; 6.0 h; 150.0 µM

solubility kinetic	SMILES
> 65 µg/mL	Cn1cnc(S(=O)(=O)Nc2cnccc2C(=O)Nc2nc(-c3ccccc3)cs2)c1
> 67 µg/mL	Cc1ccc(S(=O)(=O)Nc2cnccc2C(=O)Nc2nc(-c3cccnc3)cs2)cc1
> 56 µg/mL	CCOC(=O)c1ccc(-n2c(C)cc(-c3nnc4n3CCCCC4)c2C)cc1
63.6 µg/mL (≈ 109 µM)	CCN1CCN(CC(=O)Nc2ccc(-c3cccc4c(=O)cc(N5CCOCC5)oc34)c3sc4ccccc4c23)CC1
> 85 µg/mL	COCCNc1ncc(-c2cccc(O)c2)c2c1OCC2
2.88 µg/mL (≈ 7.06 µM)	CCOc1ccc(CCNC(=O)c2ccnn2Cc2cccc(C)c2)cc1OCC
< 1 µg/mL	FC(F)(F)c1cc(-c2ccc(CNc3nc(-c4ccccc4C(F)(F)F)nc4ccsc34)cc2)ccn1
> 80 µg/mL	CC(=O)N1CCC(NC(=O)c2nc(-c3ccccc3)cc3[nH]ccc23)CC1
0.098 µg/mL (≈ 0.201 µM)	O=C(Nc1ccc(S(=O)(=O)Nc2nccs2)cc1)c1cc(-c2ccccc2)nc2ccccc12
< 1 µg/mL	Cc1ccc(S(=O)(=O)N2CCN(C(=O)c3cc4c(s3)CCC4)CC2)cc1
< 1 µg/mL	Cc1c(NC2=C(Cl)C(=O)N(c3ccccc3)C2=O)c(=O)n(-c2ccccc2)n1C
9.62 µg/mL (≈ 33.1 µM)	N#Cc1nc(-c2cccc3ccccc23)oc1NC1CNC1
< 1 µg/mL	Cc1ccc(S(=O)(=O)Nc2ccncc2C(=O)Nc2nc(-c3ccccc3)cs2)cc1
36.9 µg/mL (≈ 117 µM)	CN1CCCN(C(c2ccccc2)c2ccc(Cl)cc2)CC1 (stereo not given)
> 32 µg/mL	CCCCN(C)C(=O)c1c(C)sc2ccn(CCC)c(=O)c12
< 1 µg/mL	CNc1oc(-c2cccc(Cl)c2Cl)nc1C#N
14.7 µg/mL (≈ 33.5 µM)	Cn1c(=O)c2c(-c3ccc(Br)cc3)n(CCc3ccccc3)cc2n(C)c1=O
< 1 µg/mL	O=c1[nH]c(C2CCCN(CC3CCCCC3)C2)nn1-c1ccc(Cl)cc1 (stereo not given)
45.7 µg/mL (≈ 121 µM)	Nc1ccc(CNc2ccc([S+](=O)([O-])Nc3nccs3)cc2)c(O)c1
1.67 µg/mL (≈ 3.59 µM)	CCc1ccc(NC(=O)c2[nH]c(C)c(C(C)=O)c2C)cc1S(=O)(=O)Nc1cccc(C#N)c1
> 58 µg/mL	Cc1ccc(S(=O)(=O)Nc2cnccc2C(=O)NCCc2ccccc2)cc1
< 1 µg/mL	CC1=C(C(=O)Nc2ccccc2)C(c2ccccc2Cl)N=C(Nc2nc3ccccc3o2)N1 (stereo not given)
15.6 µg/mL (≈ 38.3 µM)	Cc1cc(CNC(=O)c2ccc3c(c2)n(CC2CC2)c(=O)n3C2CCCCC2)on1
> 100 µg/mL	C=CCc1ccc(O)c(-c2ccc(O)c(CC=C)c2)c1

solubility kinetic	SMILES
6.66 µg/mL (≈ 20.6 µM)	Nc1nc2c(s1)C(c1ccc(Br)cc1)CC(=O)N2 (stereo not given)
> 52 µg/mL	Cc1noc(C)c1-c1ccc2ncnc(N3CCC(C(=O)O)CC3)c2c1
33 µg/mL (≈ 94 µM)	Cc1c(C)n(Cc2ccccc2)c2ccc(C(=O)OCCN(C)C)cc12
2.38 µg/mL (≈ 5.41 µM)	CCOc1ccc(N2CC(c3nc(-c4cc(OC)c(OC)c(OC)c4)no3)CC2=O)cc1 (stereo not given)
20.8 µg/mL (≈ 68.8 µM)	Nc1cc(CN2C(=O)c3ccccc3C2=O)cc(Cl)c1O
< 1 µg/mL	CCOC(=O)c1cc(C)sc1NC(=O)c1ccc(Cl)s1
< 1 µg/mL	O=C(Cc1ccc(Cl)c(Cl)c1)Nc1ccc(S(=O)(=O)Nc2cccc(O)c2)cc1
< 1 µg/mL	COc1cc(Nc2nc(-c3ccncc3)nc3ccccc23)ccc1NS(C)(=O)=O
> 54 µg/mL	CC1=C[C@@H](CNC(C)C)[C@H](C(C)C)C[C@H]1Cc1nnc(-c2ccncc2)o1
34.2 µg/mL (≈ 74.4 µM)	CC1CCN(S(=O)(=O)c2ccc3c(c2)C(C)(C)C(=O)N3CC(=O)NCc2ccco2)CC1
< 1 µg/mL	O=C1CCCC2=C1C(c1ccccc1Cl)N=C(Nc1nc3ccccc3o1)N2 (stereo not given)
5.52 µg/mL (≈ 16.2 µM)	COc1ccc(-c2cc(-c3cccc4[nH]ncc34)cn3cncc23)cn1
27.5 µg/mL (≈ 68 µM)	Cc1cn2nc(-c3nc(C4CCCN(C(=O)c5ccccc5)C4)no3)cc2c(=O)[nH]1 (stereo not given)
4.29 µg/mL (≈ 9.47 µM)	COc1cccc(CN2CCCC(c3nc(-c4ccncc4)ncc3-c3ccccc3)C2)c1O (stereo not given)
2.05 µg/mL (≈ 4.33 µM)	CN(C)c1ccc(S(=O)(=O)N2CCCCC2)cc1NS(=O)(=O)c1ccc2ccccc2c1
> 51 µg/mL	COc1cccc(-n2ncc3c2CCCC3NC(=O)c2ccccn2)c1 (stereo not given)
< 1 µg/mL	O=C1CCCC2=C1C(C1CCCCC1Cl)N=C(NC1NC3CCCCC3S1)N2 (stereo not given)
< 1 µg/mL	CC(C)Oc1ccc(C(=O)Nc2ccc3c(c2)CCCN3C(=O)c2cccs2)cc1
< 1 µg/mL	COc1c(C)cc(NC(=O)c2nn(Cc3ccc(F)cc3)c3c2CN(C(=O)c2ccc[nH]2)C[C@]3(C)C(N)=O)cc1C
2.08 µg/mL (≈ 5.13 µM)	COc1cccc(CN(C)c2ccc([S+](=O)([O-])Nc3nccs3)cc2)c1O
> 53 µg/mL	O=C(O)C1CCN(c2ncc(-c3ccc4c(c3)OCCCO4)s2)CC1
1.56 µg/mL (≈ 4.82 µM)	c1ccc(-c2nnc3n2NC(c2ccc4c(c2)OCO4)S3)cc1 (stereo not given)
> 31 µg/mL	COc1ccc(NC(=O)c2cc(-c3ccc[nH]3)n[nH]2)cc1OC
27.2 µg/mL (≈ 72.5 µM)	COc1cccc(CNc2ccc(S(=O)(=O)Nc3nccs3)cc2)c1

solubility kinetic	SMILES
< 1 µg/mL	COc1ccccc1N1CCN(c2ccc3cc(S(=O)(=O)N4CCCCC4)ccc3n2)CC1
10.1 µg/mL (≈ 28.7 µM)	CCc1c(C)nc2c(-c3cnn(-c4cc(CO)ccn4)c3)c[nH]n2c1=O
< 1 µg/mL	Cc1ccc(S(=O)(=O)Nc2ccccc2N2CCCCC2)cc1
> 48 µg/mL	NC(=O)C1CCN(c2nc(-c3cc4ccccc4o3)cs2)CC1
8.21 µg/mL (≈ 22.4 µM)	FC(F)(F)c1ccc(N2CCN(C(=S)Nc3ccccn3)CC2)cc1
< 1 µg/mL	CC(C)c1ccc(-n2ncc3c(=O)n(CC(=O)Nc4cc(F)ccc4Cl)cnc32)cc1
49.9 µg/mL (≈ 111 µM)	Cc1ccccc1S(=O)(=O)Nc1cnccc1C(=O)Nc1nc(-c2ccccc2)cs1
7.65 µg/mL (≈ 18.2 µM)	Cc1ccc(N2CCC(CNc3nc(-c4ccccc4C(C)C)ncc3F)CC2)cn1
< 1 µg/mL	Cc1ccc(S(=O)(=O)Nc2ccccc2C(=O)Nc2ccc(-c3ccccc3)cn2)cc1
< 1 µg/mL	COc1ccc(-c2ccc3nc(-c4ccc(SC)cc4)oc3c2)c(OC)c1OC
< 1 µg/mL	CCC[C@H](NC(=O)/C(C#N)=C/c1cccc(Br)n1)c1ccccc1
< 1 µg/mL	COc1ccc(C)cc1NS(=O)(=O)c1ccc(-c2cnc(C3CC3)o2)cc1
32.7 µg/mL (≈ 80.1 µM)	O=C(O)c1cccc(-n2cccc2/C=C2/NC(=O)N(c3cccc(Cl)c3)C2=O)c1
4.33 µg/mL (≈ 10.1 µM)	Cc1cc(NC(=S)N2CCN(c3cccc(C(F)(F)F)c3)CC2)nc2ccccc12
< 1 µg/mL	COc1ccc(NS(=O)(=O)c2ccc(C)cc2)cc1C(=O)Nc1nc(-c2ccccc2)cs1
< 1 µg/mL	CCOc1ccc(-c2nc(SCC(=O)Nc3ccc(C)c(C)c3)n3[nH]c(=O)cc3n2)cc1
< 1 µg/mL	Cc1ccc(NC(=O)c2cc(S(=O)(=O)NCCC3=CCCCC3)ccc2F)cc1F
6.75 µg/mL (≈ 25.3 µM)	CCc1ccc(NC(=O)c2cc3ncccn3n2)cc1
13.3 µg/mL (≈ 34.1 µM)	C[C@@H]1Cc2c([nH]c3cc(Cl)c(F)cc23)[C@]2(N1)C(=O)Nc1ccc(Cl)cc12
> 65 µg/mL	CCN1CCN(c2ccc(Nc3ccc(-c4ccc(C(N)=O)cc4)n4ncnc34)cc2)CC1
22.4 µg/mL (≈ 60.2 µM)	CCOC(=O)C1=C(C)NC(=O)CC1C(=O)Nc1cc(Cl)cc(Cl)c1 (stereo not given)
> 54 µg/mL	COc1cccc(C(=O)Nc2ccc3c(N4CCOCC4)ncnc3c2)c1
< 1 µg/mL	Cc1ccc(N2CCN(c3cnn(-c4nc5ccccc5s4)c(=O)c3Cl)CC2C)cc1 (stereo not given)
< 1 µg/mL	Cc1noc(C)c1[S+](=O)([O-])N1CCC2(CC1)CC(c1cccc(C(F)(F)F)c1)=NO2

solubility kinetic	SMILES
37.1 µg/mL (≈ 88 µM)	CCN1CCN(c2ncc3c(n2)CCN(Cc2cc(Br)cs2)C3)CC1
< 1 µg/mL	O=C(Nc1cccc(S(=O)(=O)C(F)(F)F)c1)c1ccccc1NC(=O)c1ccccc1OCC(F)(F)F
7.17 µg/mL (≈ 19.2 µM)	Cc1ccc(S(=O)(=O)Nc2ccccc2C(=O)Nc2nccs2)cc1
0.487 µg/mL (≈ 0.925 µM)	Cc1ccc(S(=O)(=O)Nc2cnccc2C(=O)Nc2nc(-c3ccc(-c4ccccc4)cc3)cs2)cc1
36.9 µg/mL (≈ 118 µM)	N#Cc1ccccc1-c1csc(N2CCC(C(N)=O)CC2)n1
< 1 µg/mL	CC1=Nc2cc(C(=O)NCCc3ccccc3)ccc2Sc2c(C)ccc(C)c21
> 53 µg/mL	CN(C)C(=O)c1cccc(-c2csc(N3CCC(C(N)=O)CC3)n2)c1
< 1 µg/mL	Cc1c(C(=O)OCCOc2ccccc2)[nH]c2c1C(=O)CC(c1ccccc1)C2 (stereo not given)
3.5 µg/mL (≈ 6.32 µM)	CNC(=O)c1cc(Oc2ccc(NC(=O)Nc3cc(C(C)(C)C)nn3-c3ccc4ncccc4c3)c(F)c2)ccn1
< 1 µg/mL	O=C(NCc1ccccc1)c1cn2cc(-c3ccccc3)sc2n1
> 63 µg/mL	Cn1c(CN2CCCCC2)nc2cc(NC(=O)c3cccc(Br)c3)ccc21
8.05 µg/mL (≈ 21.6 µM)	CCOc1ccc(CCNC(=O)c2cc3sccc3n2C)cc1OCC
3.44 µg/mL (≈ 10.8 µM)	Cc1cccc(C)c1Nc1c(-c2cccs2)nc2ncccn12
> 66 µg/mL	CCN(CC)CCOc1ccc2c(=O)c3ccc(Cl)cc3n(CCN(CC)CC)c2c1
1.48 µg/mL (≈ 3.12 µM)	CCOc1ccc(CNC(=O)CCCn2nc(C)c3c(C)n(-c4ccc(C)cc4)nc3c2=O)cc1
> 64 µg/mL	C=Cc1ccc(C(=O)N2CCCC(CCC(=O)N3CCN(c4ccccn4)CC3)C2)cc1 (stereo not given)
< 1 µg/mL	CCCc1ccc(-c2csc(NC(=O)c3ccncc3NS(=O)(=O)c3ccc(C)cc3)n2)cc1
2.15 µg/mL (≈ 5.46 µM)	Cn1c(=O)c2c(-c3ccc(Cl)cc3)n(CCc3ccccc3)cc2n(C)c1=O
44.2 µg/mL (≈ 125 µM)	NC(=O)C1CCN(c2nccc(-c3ccc4c(c3)OCCCO4)n2)CC1
5.47 µg/mL (≈ 14.5 µM)	Fc1ccc(CN2CCOC[C@H]2c2ncc(-c3ccc(Cl)s3)[nH]2)cc1
13.3 µg/mL (≈ 45.2 µM)	CN(C)S(=O)(=O)c1cccc(NC(=O)c2ccc[nH]2)c1
10.1 µg/mL (≈ 31.2 µM)	CCCCn1cnc2cc(NCc3ccc(OCC)cc3)ccc21
1.92 µg/mL (≈ 4.64 µM)	COc1cccc(NS(=O)(=O)c2ccc(NCc3cccc(OC)c3O)cc2)c1

SMILES	solubility kinetic
CCCCOC(=O)c1ccnc2cc(C(OCCN3CCCCC3)c3ccccc3Cl)sc12 (stereo not given)	< 1 µg/mL
Ic1ccccc1CNC1C2CCN(CC2)C1C(c1ccccc1)c1ccccc1 (stereo not given)	> 75 µg/mL
O=C(O)CNC(=O)c1c(O)c2ccccc2n(Cc2ccccc2)c1=O	> 52 µg/mL
COc1c(O)cc2c(c1OC)-c1ccc(SC)c(=O)cc1C(NC(C)=O)CC2 (stereo not given)	> 59 µg/mL
C/C=C1/CN2CC[C@@]34c5ccccc5N(C)[C@@H]3[C@@H]2C[C@@H]1[C@H]4C(=O)OC	> 33 µg/mL

Source: PubChem BioAssay AID1645848
